The values that follow come from US20160015770A1, “COMPOSITIONS FOR TREATMENT OF RETINAL DETACHMENT” (THE REGENTS OF THE UNIVERSITY OF MICHIGAN, priority 2013, published 2016).

The assay has as its target T1, calpain 1 (Mus musculus, UniProt O35350).
T1 construct: endogenous in cells; host or cells: 661W mouse photoreceptor cell line
T1 sequence (O35350 1-713): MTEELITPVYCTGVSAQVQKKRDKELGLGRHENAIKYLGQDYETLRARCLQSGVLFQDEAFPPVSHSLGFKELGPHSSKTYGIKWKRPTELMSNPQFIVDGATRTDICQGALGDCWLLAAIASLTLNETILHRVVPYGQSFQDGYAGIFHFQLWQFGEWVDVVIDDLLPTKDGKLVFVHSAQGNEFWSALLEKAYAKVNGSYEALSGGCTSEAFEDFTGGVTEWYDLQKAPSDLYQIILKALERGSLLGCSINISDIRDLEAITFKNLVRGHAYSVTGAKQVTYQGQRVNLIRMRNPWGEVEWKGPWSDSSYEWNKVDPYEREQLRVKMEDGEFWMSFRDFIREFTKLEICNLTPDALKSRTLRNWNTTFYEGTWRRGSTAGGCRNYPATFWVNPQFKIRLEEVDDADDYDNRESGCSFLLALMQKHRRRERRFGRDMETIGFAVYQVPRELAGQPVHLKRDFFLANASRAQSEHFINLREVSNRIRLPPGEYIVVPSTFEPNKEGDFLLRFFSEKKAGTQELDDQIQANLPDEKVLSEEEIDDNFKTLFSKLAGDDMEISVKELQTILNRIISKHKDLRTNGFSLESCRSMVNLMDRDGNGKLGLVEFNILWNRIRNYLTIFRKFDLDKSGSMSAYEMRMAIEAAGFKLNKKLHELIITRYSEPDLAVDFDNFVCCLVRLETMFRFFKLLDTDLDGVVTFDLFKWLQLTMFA
T1 sequence (O88456 1-268 partner): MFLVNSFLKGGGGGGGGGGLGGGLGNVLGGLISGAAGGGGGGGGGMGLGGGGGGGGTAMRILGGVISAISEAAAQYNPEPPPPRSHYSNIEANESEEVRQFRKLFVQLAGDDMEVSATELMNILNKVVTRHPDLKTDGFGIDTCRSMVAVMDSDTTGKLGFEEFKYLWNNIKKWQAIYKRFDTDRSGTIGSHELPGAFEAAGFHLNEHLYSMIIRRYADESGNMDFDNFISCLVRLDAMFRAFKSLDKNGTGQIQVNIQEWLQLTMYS
Put plainly: Western blot of calpain 1 specific cleaved alpha-spectrin in 661W cells treated with Fas activating antibody. The format is cell-based. To be noted: 24 hours. As to the method:
The 661W photoreceptor cell line was generously provided by Dr. Muayyad Al-Ubaidi (Department of Cell Biology, University of Oklahoma Health Sciences Center, Oklahoma City, Okla.). The 661W cell line was maintained in Dulbecco's modified Eagle's medium containing 10% fetal bovine serum, 300 mg/L glutamine, 32 mg/L putrescine, 40 μL/L β-mercaptoethanol, and 40 μg/L of both hydrocortisone 21-hemisuccinate and progesterone. The media also contained penicillin (90 units/mL) and streptomycin (0.09 mg/mL). Cells were grown at 37° C. in a humidified atmosphere of 5% CO2 and 95% air.
Retinas from experimental eyes with detachment (detached portion of retina only) and control eyes without detachment were dissected from the RPE-choroid, homogenized, and lysed in buffer containing 10 mM HEPES (pH 7.6), 0.5% IgEPal, 42 mM KCl, 1 mM phenylmethylsulfonyl fluoride, 1 mM EDTA, 1 mM EGTA, 1 mM dithiothreitol, 5 mM MgCl2, and one tablet of protease inhibitors per 10 mL buffer (Complete Mini; Roche Diagnostics GmbH, Madison, Wis.). 661W cells were plated at 150,000 cells per well in six-well culture dishes in growth media. After 24 hours, the cells were washed one time with warmed PBS solution and then placed in growth media without fetal bovine serum. Depending on experimental conditions, 500 ng/mL Fas activating antibody (BD Biosciences, San Jose, Calif.) and various calpain inhibitors including MDG-28170 (Sigma, St. Louis, Mo.), MG-101 (Sigma, St. Louis, Mo.), calpeptin (Santa Cruz Biotechnology, Santa Cruz, Calif.) or equal volume of DMSO was added. Calpain inhibitors were added 1 hour prior to the addition of Fas activating antibody. The cells were incubated for various lengths of time and then lysed and homogenized in lysis buffer. The homogenates were incubated on ice and centrifuged at 22,000 g at 4° C. for 60 minutes. The protein concentration of the supernatant was then determined (DC Protein Assay kit; Bio-Rad Laboratories, Hercules, Calif.). The protein samples were separated on SDS-polyacrylamide gels (Tris-HCl Ready Gels; Bio-Rad Laboratories). After electrophoretic separation, the proteins were transferred onto polyvinylidene fluoride membranes (Immobilon-P; Millipore, Billerica, Mass.). Membranes were then immunoblotted with antibodies according to the manufacturer's instructions. The following antibodies were used: LC3b (Cell Signaling, Beverly, Mass.), Atg5 (Abgent, San Diego, Calif.), Atg12 (Cell Signaling, Beverly, Mass.), calpain 1 (Cell Signaling, Beverly, Mass.), alpha-spectrin (Santa Cruz Biotechnology, Santa Cruz, Calif.), actin (Sigma, St. Louis, Mo.), and GAPDH (Abcam, Cambridge, Mass.).
After determining calpain 1 levels, it was looked to correlate this with calpain activity. […]
In general terms: Immunoblotting shows a protein as a band on a membrane.

In the case of `CCCC[C@@H](C=O)NC(=O)[C@H](CC(C)C)NC(=O)OCc1ccccc1` [calpeptin], the “relative size of the effect on cleaved alpha-spectrin among the calpain inhibitors” value (Fas activating antibody, two concentrations) is “largest effect”. Under “inhibitor added 1 hour before Fas activating antibody, compared to Fas activation alone”, the cleaved alpha-spectrin levels result was “decreased”.
